Values joined by “and” are separate entries in the source; they are usually repeats but may differ in a detail not shown here. Equal values may be shown once.
Assays:
Type in all cases: cell-based
[1] = biological target: 320 non-olfactory GPCRs (Homo sapiens, UniProt Q96LA9); details: receptor MRGPRX4; replicate values, Fig_4g
[2] = biological target: 320 non-olfactory GPCRs (Homo sapiens, UniProt P61073)
[3] = biological target: T1, 320 non-olfactory GPCRs (Homo sapiens, UniProt Q99705); details: receptor MCHR1R; replicate values, Fig_4g
T1 construct: expressed in transfected cells; host or cells: HTLA cells

[4] = biological target: T2, 320 non-olfactory GPCRs (Homo sapiens, UniProt P51685)
T2 construct: expressed in transfected cells; host or cells: HTLA cells
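Wherever Fold of Basal is given: compound tested at 1 µM final concentration.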
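Wherever GPCRome agonism screen response is given: fold over basal response of each receptor without drug.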

320 non-olfactory GPCRs (Homo sapiens, UniProt Q96LA9), sequence (Q96LA9 whole entry): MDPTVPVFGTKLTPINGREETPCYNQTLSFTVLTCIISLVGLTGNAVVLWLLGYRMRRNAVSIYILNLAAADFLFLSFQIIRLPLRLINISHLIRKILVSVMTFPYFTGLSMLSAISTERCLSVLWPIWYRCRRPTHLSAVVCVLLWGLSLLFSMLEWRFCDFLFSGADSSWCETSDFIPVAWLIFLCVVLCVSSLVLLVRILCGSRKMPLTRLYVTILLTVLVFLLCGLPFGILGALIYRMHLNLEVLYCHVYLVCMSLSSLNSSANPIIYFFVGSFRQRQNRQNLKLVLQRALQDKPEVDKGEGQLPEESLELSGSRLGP
320 non-olfactory GPCRs (Homo sapiens, UniProt P61073), sequence (P61073 whole entry): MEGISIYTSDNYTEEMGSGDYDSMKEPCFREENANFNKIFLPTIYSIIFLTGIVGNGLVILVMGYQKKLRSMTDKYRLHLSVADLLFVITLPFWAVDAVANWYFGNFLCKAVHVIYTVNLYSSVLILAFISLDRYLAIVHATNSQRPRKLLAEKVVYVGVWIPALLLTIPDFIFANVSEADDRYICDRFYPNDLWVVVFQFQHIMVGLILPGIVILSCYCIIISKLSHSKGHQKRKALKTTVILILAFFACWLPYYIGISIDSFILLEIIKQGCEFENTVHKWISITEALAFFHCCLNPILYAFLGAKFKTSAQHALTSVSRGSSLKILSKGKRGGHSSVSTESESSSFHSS
T2 sequence (P51685 whole entry): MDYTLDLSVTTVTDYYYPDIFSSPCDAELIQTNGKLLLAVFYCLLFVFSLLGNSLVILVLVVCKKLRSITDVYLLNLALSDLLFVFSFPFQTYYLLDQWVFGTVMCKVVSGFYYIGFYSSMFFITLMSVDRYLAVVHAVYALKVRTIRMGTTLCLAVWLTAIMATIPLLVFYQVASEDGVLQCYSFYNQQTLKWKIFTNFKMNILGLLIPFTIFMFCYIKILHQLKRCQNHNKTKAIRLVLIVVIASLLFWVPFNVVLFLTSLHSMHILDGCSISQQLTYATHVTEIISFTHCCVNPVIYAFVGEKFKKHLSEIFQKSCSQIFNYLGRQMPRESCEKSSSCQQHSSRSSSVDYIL
T1 sequence (Q99705 whole entry): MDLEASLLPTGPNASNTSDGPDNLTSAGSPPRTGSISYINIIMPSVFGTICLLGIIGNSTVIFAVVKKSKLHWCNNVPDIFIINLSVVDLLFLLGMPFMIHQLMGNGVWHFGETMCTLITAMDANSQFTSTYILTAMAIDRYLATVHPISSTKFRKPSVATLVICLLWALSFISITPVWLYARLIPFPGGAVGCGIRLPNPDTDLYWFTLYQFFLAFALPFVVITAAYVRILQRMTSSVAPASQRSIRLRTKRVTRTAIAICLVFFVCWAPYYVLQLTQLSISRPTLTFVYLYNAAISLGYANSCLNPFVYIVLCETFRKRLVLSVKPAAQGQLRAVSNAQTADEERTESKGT

## CCOc1cccc2cc(C(C)NCC3(O)CCCCC3)oc12 (stereo not shown) [O4LE6]
[1]
  GPCRome agonism screen response: 0.3813 and 0.7022 and 0.804 and 1.112
[2]
  Fold of Basal: 0.9863 and 0.8615 and 0.8471 and 0.9066
[3]
  GPCRome agonism screen response: 0.7534 and 1.295 and 1.833 and 1.448
[4]
  Fold of Basal: 1.057 (2×) and 0.6946 and 0.6945
